*1 amine or outer side, *2 acyl side, *3 side chain or, on linkers, in order; H or OH if unused. Where a SMILES comes first, the peptide text is derived from it. Bridges are numbered along the chain shown (N, C = ends). [ ]: non-standard residue; d: D form. The star is where a group is joined. hPhe(3,5-F2-4-CF3) = N[C@@H](CCc1cc(F)c(C(F)(F)F)c(F)c1)C(=O)O; hPhe(3-Cl-4-CF3) = N[C@@H](CCc1ccc(C(F)(F)F)c(Cl)c1)C(=O)O; NPrPhe(4-CF3) = CCCN[C@@H](Cc1ccc(C(F)(F)F)cc1)C(=O)O; NEtPhe(4-CF3) = CCN[C@@H](Cc1ccc(C(F)(F)F)cc1)C(=O)O; X32 = Cc1ccc(C[C@@H](C(=O)[*:2])N(CC2CCCC2)[*:1])cc1; NMeGly(cPent) = CN[C@H](C(=O)O)C1CCCC1; Pro(4,4-F2) = O=C(O)[C@@H]1CC(F)(F)CN1; NMeD = CN[C@@H](CC(=O)O)C(=O)O; NMeL = CN[C@@H](CC(C)C)C(=O)O; αMeS = C[C@](N)(CO)C(=O)O; Ac6c = NC1(C(=O)O)CCCCC1; Morpholide = C1CN(*)CCO1; Ac5c = NC1(C(=O)O)CCCC1; Aze = O=C(O)[C@@H]1CCN1; Ac4c = NC1(C(=O)O)CCC1; Aib = CC(C)(N)C(=O)O; Sar = CNCC(=O)O; Allyl = C=CC*
Tests used:
[1] = target: GDP-bound NRAS wild-type protein (Homo sapiens, UniProt P01111); assay: Binding to NRAS by surface plasmon resonance (SPR), KD and KD ratio to KRAS
In short: (§1)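 Affinity is measured by surface plasmon resonance at 30°C against captured, GDP-loaded RAS carrying a biotinylated Avi tag. Compounds are titrated by single-cycle kinetics, and KD comes from a 1:1 fit.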

[2] = target: HRAS wild-type protein (Homo sapiens, UniProt P01112); assay: Binding to HRAS by surface plasmon resonance (SPR), KD and KD ratio to KRAS
In short: as §1

[3] = test system: human lung cancer strain NCI-H441; type: cell-based
In short: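 Readout: […] after the ATP-based reagent. Compound: serial dilutions in dimethyl sulfoxide.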

[4] = ratio of the KD value with respect to GDP-bound NRAS wild-type protein to the KD value with respect to KRAS
[5] = ratio of the KD value with respect to HRAS wild-type protein to the KD value with respect to KRAS
[6] = ratio of KD for GDP-bound NRAS wild-type protein to KD for KRAS
[7] = ratio of KD for HRAS wild-type protein to KD for KRAS

Sequence of GDP-bound NRAS wild-type protein (P01111 whole entry): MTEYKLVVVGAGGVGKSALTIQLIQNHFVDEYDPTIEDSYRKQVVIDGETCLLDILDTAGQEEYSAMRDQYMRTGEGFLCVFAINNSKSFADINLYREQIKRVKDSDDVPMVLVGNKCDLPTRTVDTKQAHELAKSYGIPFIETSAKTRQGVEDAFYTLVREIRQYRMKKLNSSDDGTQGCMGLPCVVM
Sequence of HRAS wild-type protein (P01112 whole entry): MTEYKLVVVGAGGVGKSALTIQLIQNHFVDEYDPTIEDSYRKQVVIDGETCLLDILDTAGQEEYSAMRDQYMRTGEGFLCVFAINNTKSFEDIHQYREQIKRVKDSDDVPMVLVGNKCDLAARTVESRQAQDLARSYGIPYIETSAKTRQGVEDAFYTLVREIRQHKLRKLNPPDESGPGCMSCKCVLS

Structure (SMILES)	NRAS /KRAS [1, 4]	HRAS /KRAS [2, 5]	IC50 [3] [nM]	NRAS /KRAS [1, 6]	HRAS /KRAS [2, 7]
CC[C@H](C)[C@@H]1NC(=O)[C@H](CC(C)C)N(C)C(=O)C[C@@H](C(=O)N2CCCC2)N(C)C(=O)[C@H](C2CCCC2)N(C)C(=O)C2(CCCC2)NC(=O)[C@@H]2CCCN2C(=O)[C@H](CCc2cc(F)c(C(F)(F)F)c(F)c2)NC(=O)CN(C)C(=O)[C@H](Cc2ccc(C(F)(F)F)cc2)N2CCCC[C@@H](C2=O)N(C)C(=O)CN(C)C1=O [PP0571]	B (a compound having 3 or more and less than 10 is denoted as B)	B (a compound having 3 or more and less than 10 is denoted as B)	5.4		
CC[C@H](C)[C@@H]1NC(=O)[C@H](CC(C)C)N(C)C(=O)C[C@@H](C(=O)N2CCOCC2)N(C)C(=O)[C@H](C2CCCC2)N(C)C(=O)C2(CCCC2)NC(=O)[C@@H]2CCCN2C(=O)[C@H](CCc2ccc(C(F)(F)F)c(Cl)c2)NC(=O)CN(C)C(=O)[C@H](Cc2ccc(C)cc2)N(CC2CCCC2)C(=O)CN(C)C(=O)CN(C)C1=O [PP0096] ([NMeL]I[Sar][Sar][X32][Sar][hPhe(3-Cl-4-CF3)]P[Ac5c][NMeGly(cPent)][NMeD]-Morpholide; lactam N-11)			68.9	C (A compound having a KD ratio of 0.1 or more and less than 3 is denoted as C)	C (A compound having a KD ratio of 0.1 or more and less than 3 is denoted as C)
CCO[C@@H]1C[C@H]2C(=O)NC3(CCC3)C(=O)N(C)[C@@H](C3CCCC3)C(=O)N(C)[C@H](C(=O)N3CCOCC3)CC(=O)N(C)[C@@H](Cc3cccc(Cl)c3)C(=O)N[C@@H]([C@@H](C)CC)C(=O)N(C)CC(=O)N(C)[C@H]3CCCCCN(C3=O)[C@@H](Cc3ccc(C(F)(F)F)cc3)C(=O)N(C)CC(=O)N[C@@H](CCc3cc(F)c(C(F)(F)F)c(F)c3)C(=O)N2C1 [PP0857]			111	B (a compound having 3 or more and less than 10 is denoted as B)	B (a compound having 3 or more and less than 10 is denoted as B)
CCC[C@H]1C(=O)N[C@@H]([C@@H](C)CC)C(=O)N(C)CC(=O)N(C)[C@H]2C/C=C\CCN(C2=O)[C@@H](Cc2ccc(C(F)(F)F)cc2)C(=O)N(C)CC(=O)N[C@@H](CCc2ccc3c(C)c(C)n(C)c3c2)C(=O)N2C[C@H](OCC)C[C@H]2C(=O)NC2(CC(C)(C)C2)C(=O)N(C)[C@@H](C2CCCC2)C(=O)N(C)[C@H](C(=O)N(C)C)CC(=O)N1C [PP2893]			72	A (a compound having 10 or more and less than 20 is denoted as A)	A (a compound having 10 or more and less than 20 is denoted as A)
CC[C@H](C)[C@@H]1NC(=O)[C@@H]2CCCCCN2C(=O)C[C@@H](C(=O)N2CCOCC2)N(C)C(=O)[C@H](C2CCCC2)N(C)C(=O)C2(CCCC2)NC(=O)[C@@H]2CCCN2C(=O)[C@H](CCc2cc(F)c(C(F)(F)F)c(F)c2)NC(=O)CN(C)C(=O)[C@H](Cc2ccc(C(F)(F)F)cc2)N2CCCCC[C@@H](C2=O)N(C)C(=O)CN(C)C1=O [PP0521]	B (a compound having 3 or more and less than 10 is denoted as B)	B (a compound having 3 or more and less than 10 is denoted as B)	586		
CC[C@H](C)[C@@H]1NC(=O)[C@H](CC(C)C)N(C)C(=O)C[C@@H](C(=O)N2CCOCC2)N(C)C(=O)[C@H](C2CCCC2)N(C)C(=O)C2(CCCC2)NC(=O)[C@@H]2CCCN2C(=O)[C@H](CCc2ccc(C(F)(F)F)c(Cl)c2)NC(=O)CN(C)C(=O)[C@H](Cc2ccc(C(F)(F)F)cc2)N2CC/C=C\C[C@@H](C2=O)N(C)C(=O)CN(C)C1=O [PP0463]	A (a compound having 10 or more and less than 20 is denoted as A)	A (a compound having 10 or more and less than 20 is denoted as A)	26.3		
CCCN1C(=O)[C@@H]2CCN2C(=O)CN(C)C(=O)[C@H]([C@@H](C)CC)NC(=O)[C@H](CC(C)C)N(C)C(=O)C[C@@H](C(=O)N(C)C)N(C)C(=O)[C@H](C2CCCC2)N(C)C(=O)C2(CCC2)NC(=O)[C@@H]2CC(F)(F)CN2C(=O)[C@H](CCc2ccc(C(F)(F)F)c(Cl)c2)NC(=O)CN(C)C(=O)[C@@H]1Cc1ccc(C(F)(F)F)cc1 [PP0443] ([NMeL]I[Sar][Aze][NPrPhe(4-CF3)][Sar][hPhe(3-Cl-4-CF3)][Pro(4,4-F2)][Ac4c][NMeGly(cPent)][NMeD]-NMe2; lactam N-11)	C (A compound having a KD ratio of 0.1 or more and less than 3 is denoted as C)	C (A compound having a KD ratio of 0.1 or more and less than 3 is denoted as C)	0.9		
C=CCOC[C@]1(C)NC(=O)[C@@H]2CCCN2C(=O)[C@H](CCc2cc(F)c(C(F)(F)F)c(F)c2)NC(=O)CN(C)C(=O)[C@H](Cc2ccc(C(F)(F)F)cc2)N(CCC)C(=O)[C@@H]2CCN2C(=O)CN(C)C(=O)[C@H]([C@@H](C)CC)NC(=O)[C@H](CC(C)C)N(C)C(=O)C[C@@H](C(=O)N2CCOCC2)N(C)C(=O)[C@H](C2CCCC2)N(C)C1=O [PP0799] ([NMeL]I[Sar][Aze][NPrPhe(4-CF3)][Sar][hPhe(3,5-F2-4-CF3)]P[αMeS](Allyl)[NMeGly(cPent)][NMeD]-Morpholide; lactam N-11)			36.3	C (A compound having a KD ratio of 0.1 or more and less than 3 is denoted as C)	B (a compound having 3 or more and less than 10 is denoted as B)
CCO[C@@H]1C[C@H]2C(=O)NC3(CC(C)(C)C3)C(=O)N(C)[C@@H](C3CCCC3)C(=O)N(C)[C@H](C(=O)N3CCCCC3)CC(=O)N(C)[C@H]3CC/C=C/c4ccc(cc4)C[C@@H](C(=O)N(C)CC(=O)N[C@@H](CCc4ccc(Cl)c(Cl)c4)C(=O)N2C1)N1CC/C=C\C[C@@H](C1=O)N(C)C(=O)CN(C)C(=O)[C@H]([C@@H](C)CC)NC3=O [PP2597]			20.1	A (a compound having 10 or more and less than 20 is denoted as A)	A (a compound having 10 or more and less than 20 is denoted as A)
CCO[C@@H]1C[C@H]2C(=O)NC3(CCC3)C(=O)N(C)[C@@H](C3CCCC3)C(=O)N(C)[C@H](C(=O)N(C)C)CC(=O)N(C)[C@@H](CC3CCCC3)C(=O)N[C@@H]([C@@H](C)CC)C(=O)N(C)CC(=O)N(C)[C@H]3C/C=C\CCN(C3=O)[C@@H](Cc3ccc(C)cc3)C(=O)N(C)CC(=O)N[C@@H](CCc3ccc(C4CC4)c(C)c3)C(=O)N2C1 [PP2685]			133	A (a compound having 10 or more and less than 20 is denoted as A)	A (a compound having 10 or more and less than 20 is denoted as A)
CC[C@H](C)[C@@H]1NC(=O)[C@H](CC(C)C)N(C)C(=O)C[C@@H](C(=O)N2CCOCC2)N(C)C(=O)[C@H](C2CCCC2)N(C)C(=O)C2(CCCCC2)NC(=O)[C@@H]2CCCN2C(=O)[C@H](CCc2ccc(C(F)(F)F)c(Cl)c2)NC(=O)CN(C)C(=O)[C@H](Cc2ccc(C(F)(F)F)cc2)N(CC)C(=O)CN(C)C(=O)CN(C)C1=O [PP0236] ([NMeL]I[Sar][Sar][NEtPhe(4-CF3)][Sar][hPhe(3-Cl-4-CF3)]P[Ac6c][NMeGly(cPent)][NMeD]-Morpholide; lactam N-11)			20.3	B (a compound having 3 or more and less than 10 is denoted as B)	C (A compound having a KD ratio of 0.1 or more and less than 3 is denoted as C)
CCCN1C(=O)CN(C)C(=O)CN(C)C(=O)[C@H]([C@@H](C)CC)NC(=O)[C@H](CC(C)C)N(C)C(=O)C[C@@H](C(=O)N2CCOCC2)N(C)C(=O)[C@H](C2CCCC2)N(C)C(=O)C2(CCCC2)NC(=O)[C@@H]2CCCN2C(=O)[C@H](CCc2ccc(C(F)(F)F)c(Cl)c2)NC(=O)CN(C)C(=O)[C@@H]1Cc1ccc(C(F)(F)F)cc1 [PP0060] ([NMeL]I[Sar][Sar][NPrPhe(4-CF3)][Sar][hPhe(3-Cl-4-CF3)]P[Ac5c][NMeGly(cPent)][NMeD]-Morpholide; lactam N-11)			1.5	B (a compound having 3 or more and less than 10 is denoted as B)	B (a compound having 3 or more and less than 10 is denoted as B)
CCO[C@@H]1C[C@H]2C(=O)NC3(CCC3)C(=O)N(C)[C@@H](C3CCCC3)C(=O)N(C)[C@H](C(=O)N3CCOCC3)CC(=O)N(C)[C@@H](CC(C)C)C(=O)N[C@@H]([C@@H](C)CC)C(=O)N(C)CC(=O)N(C)[C@H]3CC=CCN(C3=O)[C@@H](Cc3ccc(C(F)(F)F)cc3)C(=O)N(C)CC(=O)N[C@@H](CCc3cc(F)c(C(F)(F)F)c(F)c3)C(=O)N2C1 [PP0832]			21.5	C (A compound having a KD ratio of 0.1 or more and less than 3 is denoted as C)	C (A compound having a KD ratio of 0.1 or more and less than 3 is denoted as C)
CCCN1C(=O)CN(C)C(=O)CN(C)C(=O)[C@H]([C@@H](C)CC)NC(=O)[C@H](CC(C)C)N(C)C(=O)C[C@@H](C(=O)N2CCOCC2)N(C)C(=O)[C@H](C2CCCC2)N(C)C(=O)C(C)(C)NC(=O)[C@@H]2CCCN2C(=O)[C@H](CCc2ccc(C(F)(F)F)c(Cl)c2)NC(=O)CN(C)C(=O)[C@@H]1Cc1ccc(C(F)(F)F)cc1 [PP0230] ([NMeL]I[Sar][Sar][NPrPhe(4-CF3)][Sar][hPhe(3-Cl-4-CF3)]P[Aib][NMeGly(cPent)][NMeD]-Morpholide; lactam N-11)			15.5	B (a compound having 3 or more and less than 10 is denoted as B)	C (A compound having a KD ratio of 0.1 or more and less than 3 is denoted as C)

Reference: patent EP4603105A1, “PHARMACEUTICAL COMPOSITION CONTAINING CYCLIC COMPOUND HAVING SELECTIVE KRAS INHIBITORY EFFECT AGAINST HRAS AND NRAS” (CHUGAI SEIYAKU KABUSHIKI KAISHA, priority 2022, dated 2024)
